Data reported in EP1079849B1, “USE OF HMG PROTEINS FOR THE PREPARATION OF MEDICAMENTS HAVING CYTOTOXIC ACTIVITY” (Istituto Di Ricerche " Giorgio Sisini", priority 1998, dated 2002).

System: tumors
Assay: DMBA-induced tumor growth in rats
Conditions: female rats with DMBA-induced tumors; control = saline solution; result in words

Peptide 1-19: peptide 1-19 of HMG-I, commercially available from Santa Cruz Biotechnology, Santa Cruz, CA, USA (MSESSSKSSQPLASKQEKD; UniProt P17096 1-19, looked up, fragment)
tumor growth in comparison to the control: clearly slow down the tumor growth
